Assay results: patent publication US7585517B2, “Transscleral delivery” (Macusight, Inc., priority 2003, dated 2009)
Where two headings read alike, the source gives them in different places.

Legend:
[1] = Retinal tissue and blood levels of rapamycin after periocular injection (HPLC/MS); assay type: in vivo; settings: mice
Method: (§1) CNV may be induced by rupturing Bruch's membrane with laser. Fifteen mice were given daily periocular injections of 5 micrograms of rapamycin in corn oil vehicle in one eye. After two days of treatment, Bruch's membrane was ruptured by laser at three sites in each eye. The fellow eye served as control and was treated with periocular injections of corn oil only. Two weeks after laser rupture, 10 mice were perfused with fluorescein-labeled dextran and CNV areas were measured in each eye on choroidal flat mounts. The remaining mice had retinas and RPE/choroid dissected and stored at −70° C. for tissue therapeutic agents level measurement.

[2] = Two chamber Ussing type permeability apparatus, transscleral rapamycin delivery; assay type: in vitro ADME, human; settings: human
Method: (§2) Prior to testing of sclera, loss of therapeutic agent to the glass walls of the experimental apparatus was evaluated. For the evaluation of loss of drug to the experimental apparatus, the uveal and orbital chambers were exposed to a 2 μg/mL rapamycin solution in balanced salt solution.
(§3) A 7 mm disk of fresh donor human sclera was used to separate the two chambers of the Ussing permeability apparatus. The two sides of the sclera were denoted “orbital” to represent the outer surface and “uveal” to represent the internal surface. […] Thus, in order to grossly replicate a scleral depot delivery system, the hydrophobic therapeutic agent solvents were diluted to 5% concentration in balanced salt solution (BSS) with dissolved rapamycin to form a roughly 100 μg per ml orbital chamber solution. In this example, the chamber on the orbital surface side contained a reservoir of 200 μl of rapamycin dissolved in 5% DMSO in BSS at an expected concentration of 100 μg per milliliter. The 500 μl uveal chamber was continually perfused at 0.0075 milliliter per minute and samples were collected by a fractionater in Eppendorf tubes every 4 hours. The experiment was run for 36 hours.
(§4) At the peak concentrations in the uveal chamber (250 ng/ml), rapamycin will fully dissolve in vitreous. Because the amount of therapeutic agent in the orbital chamber was declining, the steady state was estimated by the highest flux. […] A permeability coefficient (K) was calculated as:
(§5) [formula] ΔC represents the increase in concentration the compound in the uveal chamber (0.250 micrograms/ml) that occurs over the interval t, in seconds ([…]). V is the chamber volume (1.8 milliliter). A represents the exposed area of the tissue (0.385 cm^2). C0 is the initial concentration of the compound in the orbital chamber (92 microgram/ml). Calculated in this manner, the permeability coefficient, K, has the dimensions of cm/s. KTRANS thus expresses the rate at which a given solute traverses the tissue. (Advanced Therapeutic agent Delivery Reviews 52 (2001) 37-48 by Dale Geroski and Hank Edelhauser, which is incorporated herein by reference in its entirety). For this experiment KTRANS was roughly 8.82×10^−6 cm/sec, which was on the order of predictions based on MW. Comparatively, when evaluating the KTRANS of dexamethasone, which is smaller than rapamycin, and adjusting for a lower solubility, the figures for rapamycin are also in the appropriate predicted ranges. It is expected that as the external concentration of rapamycin is raised, the flux will increase. Under the ex-vivo conditions of this example, rapamycin can be delivered in the single digit micrograms per day to the vitreous. Such rates are consistent with therapeutic local tissue levels and support that rapamycin is a viable therapeutic agent for transscleral delivery to the posterior segment for vitreoretinal disease. Transscleral Rapamycin Delivery—Methanol Solution
(§6) The above procedure was followed with the exception that rapamycin was dissolved in 5% methanol in BSS. The time profile of the concentration of rapamycin in the uveal chamber is depicted in FIG. 3 (circles). The peak concentration in the uveal chamber was 271 ng/ml at t=12 to 16 hours. The total amount of rapamycin accumulated on the uveal side of the sclera is depicted as function of time in FIG. 4 (squares). The total rapamycin recovered from the uveal chamber was 3.44 micrograms in 36 hours.

[3] = test system: human sclera; experiment: as above; assay type: in vitro ADME; settings: for rapamycin held by the sclera at the conclusion of the experiment: 36 hours; for total rapamycin recovered from the uveal chamber: in 36 hours
Method: as §2, §3, §4, §5, §6

[4] = test system: laser induced CNV; experiment: Reversal of laser induced CNV by periocular rapamycin (Example 2); assay type: in vivo; settings: mice; daily periocular 5 μg in 5 μl corn oil started one week after laser, for one week; SD 0.0053
Method: Fifteen mice had Bruch's membrane ruptured with laser photocoagulation at 3 locations in each eye. After one week, 5 mice were perfused with fluorescein-labeled dextran and the baseline area of CNV was measured in each eye. At that point, the remaining mice were started on daily periocular injections of 5 μl of corn oil containing 5 μg of rapamycin in one eye and corn oil alone in the fellow eye. After one more week, the mice were perfused with fluorescein-labeled dextran and CNV areas were measured in each eye on choroidal flat mounts. The corn oil solution used is approximately a saturated solution. It is expected that lower doses will be used to deliver therapeutically effective amounts of rapamycin.
Baseline lesion CNV area was 0.0105 mm^2 with a standard deviation of 0.0037.

[5] = test system: laser induced CNV; experiment: Inhibition of laser induced CNV by periocular rapamycin (Example 1); assay type: in vivo; settings: mice; daily periocular injections of 5 micrograms in corn oil, begun two days before laser rupture; two weeks after laser; SD 0.00197
Method: as §1

[6] = Solubility of rapamycin; assay type: physicochemical

With `CO[C@H]1C[C@@H]2CC[C@@H](C)[C@@](O)(O2)C(=O)C(=O)N2CCCC[C@H]2C(=O)O[C@H]([C@H](C)C[C@@H]2CC[C@@H](O)[C@H](OC)C2)CC(=O)[C@H](C)/C=C(\C)[C@@H](O)[C@@H](OC)C(=O)[C@H](C)C[C@H](C)/C=C/C=C/C=C/1C` [rapamycin] the rapamycin blood levels ([1]; periocular 5 μg per day) was 5.57 nanograms per milligram blood, the “retinal tissue levels of rapamycin, treated eyes” value ([1]; periocular 5 μg per day, HPLC/MS) was 25 picograms per milligram tissue and the “retinal tissue levels of rapamycin, fellow control eyes” value ([1]; untreated fellow eye of animals given periocular 5 μg per day in the other eye) was 7 picograms per milligram tissue. The Papp at 36 h, 92 μg/mL ([2]; 5% DMSO in BSS, read-out: permeability coefficient KTRANS) was roughly 8.82 ×10⁻⁶ cm/s, the Papp at 36 h, 100 μg/mL ([2]; 5% methanol in BSS, read-out: permeability coefficient KTRANS) was 9.56 ×10⁻⁶ cm/s and the Papp at 36 h, 100 μg/mL ([2]; ex-vivo human scleral tissue, order of magnitude, summary of Example 3, read-out: permeability of human sclera to rapamycin) was roughly 10 ×10⁻⁶ cm/s. For the same compound, the “time of peak concentration in the uveal chamber” value ([3]; 5% DMSO in BSS) was 8 to 12 h, the “peak concentration in the uveal chamber” value ([3]; 5% DMSO in BSS, about 100 μg per ml orbital chamber) was 250 ng/mL and the “rapamycin held by the sclera at the conclusion of the experiment” value ([3]; 5% DMSO in BSS) was 0.57 micrograms. For the same compound, the “total rapamycin recovered from the uveal chamber” value ([3]; 5% DMSO in BSS) was 2.67 micrograms, the highest flux ([3]; 5% DMSO in BSS, taken as estimate of steady state) was 9.35 micrograms per square centimeter per day and the “peak concentration in the uveal chamber” value ([3]; 5% methanol in BSS) was 271 ng/mL. For the same compound, the “time of peak concentration in the uveal chamber” value ([3]; 5% methanol in BSS) was 12 to 16 h, the “rapamycin held by the sclera at the conclusion of the experiment” value ([3]; 5% methanol in BSS) was 0.41 micrograms and the “total rapamycin recovered from the uveal chamber” value ([3]; 5% methanol in BSS) was 3.44 micrograms. For the same compound, the “CNV area, treated eyes” value [4] was 0.00458 mm^2, the “mean CNV area, rapamycin treated eyes” value [5] was 0.00381 mm^2 and the “solubility in aqueous solutions” value [6] was “poorly soluble”.
